One series has as its target EGFR Δ19del/T790M/C797S (Homo sapiens, UniProt P00533, T790M/C797S, form not given). Nature of the series: EGFR Δ19del/T790M/C797S kinase test (mobility shift, Caliper EZ Reader). Type of series: biochemical. To be noted: kinase enzymatic activity, numeric values. In short, it runs like this:
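Mobility-shift assay in which kinase was preincubated 10 min at room temperature with a 10-point, 3-fold compound series starting at 3000 nM or 100 nM. ATP plus substrate then started the reaction at room temperature, and conversion was read on Caliper EZ Reader. IC50 came from a variable-slope fit of % inhibition against positive and negative controls.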

Series [1] in a line: Liver microsomal clearance test, human. Particulars: Human liver microsomes, 0.5 mg/mL, NADPH. It is filed as in vitro ADME. The procedure:
(§1) Test 3 Liver Microsomal Clearance Test
(§2) 1. Prepare 0.5 mg/mL liver microsome diluent containing K-butter and MgCl2:
(§3) 2.1 Take 356 μL of the liver microsome diluent prepared above and add it to the preset wells of the incubation plate, the number of multiple wells n=1, mark it as the incubation plate.
(§4) 2.2 Take 4 μL of the positive control compound Verapamil (50 μM) and the working solution of the test compound (200 μM) into the above incubation plate containing 356 μL of liver microsome diluent, and mix well (The dilution solvent from the stock solution to the working solution is a mixed solvent of acetonitrile: methanol: water=1:1:2, and the final concentration of DMSO is ≤0.5%),
(§5) 2.3 Place the incubation plate in a 37° C. thermostatic oscillator (at shaking speed of 100 rpm) for pre-incubation with 10 min.
(§6) 2.4 Add 40 μL of 10 mM NADPH (add 40 μL of K-buffer to the wells without NADPH) to each reaction well to start the reaction and start timing.
(§7) 3. Sample collection and treatment:
(§8) 3.1 After adding NADPH to start the reaction, immediately take out 50 μL of the sample and add it to the precipitation plate pre-added with 400 μL of stop solution, and shake on an oscillator at 600 rpm for 5 min at room temperature as a 0 min sample.
(§9) 3.2 At the predetermined time points of 5 min, 15 min and 45 min, take out 50 μL of sample from the incubation plate and add it to the precipitation plate. The subsequent steps were the same as the treatment of 0 min sample. 3.3 After balancing, centrifuge above precipitation plate at 3200 rpm for 10 min at 4° C.
(§10) 3.4 Take 50 μL of the supernatant after centrifugation and add it to pre-added 20% acetonitrile water at appropriate proportion, shake on an oscillator at 600 rpm for 2 min at room temperature, mix well, and put it into the LC-MS/MS sampler for sample injection.
(§11) Analysis of Experimental Data
1. […]
For orientation: Microsomes from liver hold many membrane-bound enzymes, among them those of drug oxidation.

A short description of series [2]: Liver microsomal clearance test, dog. Type of series: in vitro ADME. Particulars: Dog liver microsomes, 0.5 mg/mL, NADPH. As for the experimental part:
as §1, §2, §3, §4, §5, §6, §7, §8, §9, §10, §11
1. […]

The next series addresses T1, hERG protein (Homo sapiens, UniProt Q12809).
T1 construct: purchased
Nature of the series: hERG IC50 test (tracer/membranes fluorescence polarization). It is filed as binding. Particulars: hERG membranes and tracer, read-out: IC50 results of hERG protein to compound. As for the experimental part:
1. Thaw hERG kits (Tracer, E-4031 and Membranes) at room temperature;
2. Add 10 μL of positive compound E-4031 and 10 μL of test compound (10 mM) to 384 well plate (Corning, Art. No. 3658);
3. E-4031 is sequentially 5-fold diluted by pure water (10 concentration points in total), and the test compound is sequentially 5-fold diluted by DMSO (10 concentration points in total).
4. Take 1 μL of all gradient concentrations and add them in parallel to the wells containing 24 μL Assay buffer, and dilute 25 times (take 3 μL of the maximum concentration of E-4031 and add it to 72 μL Assay buffer).
5. Add 10 μL Membranes to another black 384-well plate (Coming, Art.4511).
6. Take 5 μL of 25-fold diluted working solution of positive and test compounds, and add it to above-mentioned plate with 10 μL Membranes, 2 copies at each concentration.
7. Negative control: Add 5 μL Assay buffer to the well with 10 μL Membranes, 8 copies in parallel;
8. Positive control: Add 5 μL E-4031 (120 μM) to the well with 10 μL Membranes, 8 copies in parallel;
9. […]
10. Before measuring the fluorescence polarization, cover the analysis plate to protect the reagents from light and evaporation, and incubate at room temperature (20-25° C.) for 2 hours.
11. Read fluorescence polarization in PerkinElmer EnVision® Multilabel after incubation; […]
(In general: The hERG channel carries a current that helps repolarise heart muscle cells.)

Each structure is given as a SMILES string.

Chain of EGFR Δ19del/T790M/C797S (P00533 with tags, fused parts or gaps DEL746-750/T790M/C797S, form open): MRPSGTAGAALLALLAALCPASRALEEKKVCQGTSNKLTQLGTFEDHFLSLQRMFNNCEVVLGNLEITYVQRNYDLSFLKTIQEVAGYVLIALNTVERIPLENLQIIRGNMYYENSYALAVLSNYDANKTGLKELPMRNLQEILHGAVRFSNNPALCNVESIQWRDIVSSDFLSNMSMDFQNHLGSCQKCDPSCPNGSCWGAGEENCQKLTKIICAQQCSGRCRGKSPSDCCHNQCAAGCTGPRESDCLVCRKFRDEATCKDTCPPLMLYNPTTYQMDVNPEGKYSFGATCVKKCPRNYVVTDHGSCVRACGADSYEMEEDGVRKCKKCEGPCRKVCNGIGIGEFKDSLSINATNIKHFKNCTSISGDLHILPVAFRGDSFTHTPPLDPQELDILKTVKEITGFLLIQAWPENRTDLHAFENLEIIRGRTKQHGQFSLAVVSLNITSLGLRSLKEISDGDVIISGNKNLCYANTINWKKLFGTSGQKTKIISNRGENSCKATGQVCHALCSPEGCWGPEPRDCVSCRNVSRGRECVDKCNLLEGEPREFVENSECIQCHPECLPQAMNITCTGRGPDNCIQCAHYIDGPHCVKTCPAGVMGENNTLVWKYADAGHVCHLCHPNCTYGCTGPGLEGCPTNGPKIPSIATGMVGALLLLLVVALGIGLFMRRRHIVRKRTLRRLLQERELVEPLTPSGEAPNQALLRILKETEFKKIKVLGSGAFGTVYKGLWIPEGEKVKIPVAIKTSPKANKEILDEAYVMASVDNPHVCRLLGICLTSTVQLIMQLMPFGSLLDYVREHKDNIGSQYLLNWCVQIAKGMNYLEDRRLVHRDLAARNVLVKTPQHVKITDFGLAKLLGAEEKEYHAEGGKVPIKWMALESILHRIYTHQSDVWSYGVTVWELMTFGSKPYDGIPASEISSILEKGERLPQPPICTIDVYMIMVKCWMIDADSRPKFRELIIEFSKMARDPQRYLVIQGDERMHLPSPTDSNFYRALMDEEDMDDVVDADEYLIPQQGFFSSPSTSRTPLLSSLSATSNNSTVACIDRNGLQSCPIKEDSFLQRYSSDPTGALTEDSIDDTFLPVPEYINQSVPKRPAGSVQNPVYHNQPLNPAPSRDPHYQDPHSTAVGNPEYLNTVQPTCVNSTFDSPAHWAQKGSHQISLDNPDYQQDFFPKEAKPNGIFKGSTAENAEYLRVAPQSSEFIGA
T1 sequence (Q12809 whole entry): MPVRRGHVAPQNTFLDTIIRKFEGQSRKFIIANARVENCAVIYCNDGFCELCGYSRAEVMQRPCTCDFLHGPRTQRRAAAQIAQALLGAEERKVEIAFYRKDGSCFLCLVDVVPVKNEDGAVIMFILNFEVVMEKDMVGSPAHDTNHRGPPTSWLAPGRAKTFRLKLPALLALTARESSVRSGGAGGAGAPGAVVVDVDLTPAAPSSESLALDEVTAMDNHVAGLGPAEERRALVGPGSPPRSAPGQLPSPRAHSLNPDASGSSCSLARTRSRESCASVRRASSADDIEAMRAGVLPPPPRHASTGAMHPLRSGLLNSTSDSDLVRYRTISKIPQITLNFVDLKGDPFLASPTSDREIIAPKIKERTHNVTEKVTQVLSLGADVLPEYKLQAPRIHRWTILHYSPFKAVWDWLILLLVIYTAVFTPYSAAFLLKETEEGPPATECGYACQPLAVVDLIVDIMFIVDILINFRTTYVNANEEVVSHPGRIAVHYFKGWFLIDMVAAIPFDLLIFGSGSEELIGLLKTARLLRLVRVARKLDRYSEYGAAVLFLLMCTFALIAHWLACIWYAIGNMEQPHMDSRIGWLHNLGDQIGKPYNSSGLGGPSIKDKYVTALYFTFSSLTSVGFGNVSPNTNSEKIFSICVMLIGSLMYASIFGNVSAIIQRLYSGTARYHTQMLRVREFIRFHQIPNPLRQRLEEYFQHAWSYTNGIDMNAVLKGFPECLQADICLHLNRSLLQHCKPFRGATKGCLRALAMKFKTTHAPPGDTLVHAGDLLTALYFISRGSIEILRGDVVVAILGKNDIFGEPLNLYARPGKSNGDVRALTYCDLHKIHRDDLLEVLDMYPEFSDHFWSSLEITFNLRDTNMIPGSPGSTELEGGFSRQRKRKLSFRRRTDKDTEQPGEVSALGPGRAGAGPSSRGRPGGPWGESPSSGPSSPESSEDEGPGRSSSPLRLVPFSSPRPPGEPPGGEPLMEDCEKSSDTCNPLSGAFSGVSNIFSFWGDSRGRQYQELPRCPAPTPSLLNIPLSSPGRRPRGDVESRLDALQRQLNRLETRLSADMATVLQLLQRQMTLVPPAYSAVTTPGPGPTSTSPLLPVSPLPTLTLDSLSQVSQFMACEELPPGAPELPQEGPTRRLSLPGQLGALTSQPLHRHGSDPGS

In general, IC50 refers to the point on the concentration scale where inhibition reaches its midpoint. Take `COc1cc(N2CCC(N3CCN(C)CC3)CC2)c(-c2cnn(C)c2)cc1Nc1ncc(Cl)c(Nc2ccc3nccnc3c2P(C)(C)=O)n1` [Compound 1, (6-((5-Chloro-2-((2-methoxy-5-(1-methyl-1hydro-pyrazol-4-yl)-4-(4-(4-methylpiperazine-1-yl)piperidin-1-yl)phenyl)amino)pyrimidin-4-yl)amino)quinoxalin-5-yl)dimethylphosphine oxide]: the IC50 was 0.3 nM on EGFR Δ19del/T790M/C797S and above 30000 nM at hERG protein. Moreover, the “Instrinsic clearance of liver microsomal protein, CLint” value in series [1] amounted to 2.4 μL/min/mg proteins; in series [2], 1 μL/min/mg proteins.

The values above are taken from US20220259235A1, “EGFR Inhibitor, Composition, and Preparation Method Therefor” (BETTA PHARMACEUTICALS CO., LTD, priority 2019, published 2022).
